Reference: patent US11242345B2, “Sulfonimidoylpurinone compounds and methods of treatment using the same” (Hoffmann-La Roche Inc., priority 2015, dated 2022)
Read-outs that look alike come from different tables or passages of the source. Values belong to the compound of their own block, whether it stands above or below them.

Experiments:
human TLR7 = human TLR7 (Homo sapiens (Human), UniProt Q9NYK1); assay: HEK-Blue-hTLR7 cells assay (SEAP reporter); assay type: cell-based; conditions: 20 hrs
Experimental: A stable HEK-Blue-hTLR7 cell line was purchased from InvivoGen (Cat. #: hkb-htlr7, San Diego, Calif., USA). These cells were designed for studying the stimulation of human TLR7 by monitoring the activation of NF-κB. […] Therefore the reporter expression was regulated by the NF-κB promoter upon stimulation of human TLR7 for 20 hrs. The cell culture supernatant SEAP reporter activity was determined using QUANTI-Blue™ kit (Cat. #: rep-qbl, Invivogen, San Diego, Ca, USA) at a wavelength of 640 nm, a detection medium that turns purple or blue in the presence of alkaline phosphatase.
HEK-Blue-hTLR7 cells were incubated at a density of 250,000-450,000 cells/mL in a volume of 180 μL in a 96-well plate in Dulbecco's Modified Eagle's medium (DMEM) containing 4.5 g/L glucose, 50 U/mL penicillin, […], […], 2 mM L-glutamine, 10% (V/V) heat-inactivated fetal bovine serum for 24 hrs. Then the HEK-Blue-hTLR-7 cells were incubated with addition of 20 μL test compound in a serial dilution in the presence of final DMSO at 1% and perform incubation under 37° C. in a CO2 incubator for 20 hrs. Then 20 μL of the supernatant from each well was incubated with […] Quanti-blue substrate solution at 37° C. for 2 hrs and the absorbance was read at 620-655 nm using a spectrophotometer. The signalling pathway that TLR7 activation leads to downstream NF-κB activation has been widely accepted, and therefore similar reporter assay was also widely used for evaluating TLR7 agonist (Tsuneyasu Kaisho and Takashi Tanaka, Trends in Immunology, Volume 29, Issue 7, July 2008, […]; Hiroaki Hemmi et al, Nature Immunology 3, 196-200 (2002)).

hERG channel = hERG channel (Homo sapiens (Human), UniProt Q12809); assay: hERG channel inhibition assay (patch-clamp, CHOhERG cells); assay type: cell-based; conditions: for IC20: human, CHO cells stably expressing hERG
Experimental: The hERG K^+ channels were cloned in humans and stably expressed in a CHO (Chinese hamster ovary) cell line. CHOhERG cells were used for patch-clamp (voltage-clamp, whole-cell) experiments. Cells were stimulated by a voltage pattern to activate hERG channels and conduct IKhERG currents (rapid delayed outward rectifier potassium current of the hERG channel). […] Thereafter, the test compound was added to the preparation at increasing concentrations. For each concentration, an attempt was made to reach a steady-state effect, usually, this was achieved within 3-10 min at which time the next highest concentration was applied. The amplitude and kinetics of IKhERG are recorded in each concentration of the drug which were compared to the control values (taken as 100%). (references: Redfern W S, Carlsson L, Davis A S, Lynch W G, MacKenzie I, Palethorpe S, Siegl P K, Strang I, Sullivan A T, Wallis R, Camm A J, Hammond T G. 2003; Relationships between preclinical cardiac electrophysiology, clinical QT interval prolongation and torsade de pointes for a broad range of drugs: evidence for a provisional safety margin in drug development. Cardiovasc. Res. 58:32-45, Sanguinetti M C, Tristani-Firouzi M. 2006; hERG potassium channels and cardiac arrhythmia. Nature 440:463-469, Webster R, Leishman D, Walker D. 2002; Towards a drug concentration effect relationship for QT prolongation and torsades de pointes. Curr. Opin. Drug Discov. Devel. 5:116-26).

CYP3A4 = assay: Cytochrome P450 induction screening assay, mRNA induction in human cryopreserved hepatocytes; assay type: in vitro ADME; conditions: 24 hours
Description: Induction of cytochrome P450 enzymes is associated with an increased prevalence of clinical drug-drug interactions. The clinical consequences of induction may be therapeutic failure caused by a decreased systemic exposure of the drug itself or a co-administered therapy, or toxicity as a result of increased bioactivation. Cytochrome P450 (CYP450) induction assay has been used to understand the potential drug-drug interaction liabilities in drug discovery stage. Human cryopreserved hepatocytes (Life Technologies, Carlsbad, USA) were thawed and cultured in collagen I coated 96-well plates with a density of 52,000 cells/well. After attachment, hepatocyte maintenance medium (HMM; Lonza, Switzerland) was changed after cells were pre-cultured overnight. […] Medium change was then performed and cells were exposed for 24 hours to test compounds, positive inducer compounds, or vehicle (0.1% DMSO), respectively. At the end of the compound exposure period, medium was removed and cells lysed using 100 μL/well MagNA Pure LC RNA isolation tissue lysis buffer (Roche Diagnostics AG, Rotkreuz, Switzerland). […] mRNA isolation was performed using the MagNA Pure 96 system (Roche Diagnostics AG, Rotkreuz, Switzerland) and the respective cellular RNA large volume kit (Roche Diagnostics AG, Rotkreuz, Switzerland) from thawed samples diluted 1:1 with PBS. […] The resulting cDNA was diluted with 40 μL of H2O before using for qRT-PCR. qRT-PCR was performed by using the forward and the reverse primer, the corresponding Universal Probe Library (all from Microsynth, Balgach, Switzerland) and the Taqman Fast advanced master mix (Applied Biosystems), on an ABI 7900 machine (Applied Biosystems). qRT-PCR Ct-values for the respective P450s were put into relation to the Ct-value of RN18S1 (microsynth, Balgach, Switzerland) of the same sample. Doing so, a respective Δct-value was calculated. Using the average of all Δct-values for the vehicle control samples, a ΔΔct-value was calculated for each sample (ΔΔct-value(sample)=Δct-value(sample)−average of Δct-value of all vehicle controls). […] The individual fold induction values were then averaged per treatment condition (usually n=3 biological replicates). […] Relative induction (%)=100×(T−V)/(P−V) • T: fold induction of test compound condition • P: fold induction of positive inducer compound • V: fold induction of vehicle controls Results of CYP3A4 induction are given in Table 5.

human TLR8 = human TLR8 (Homo sapiens (Human), UniProt Q9NR97); assay: HEK-Blue-hTLR8 cells assay (SEAP reporter) and selectivity index; assay type: cell-based; conditions: 20 hrs, read-out: HEK Blue hTLR-8 EC50
Experimental: These cells were designed for studying the stimulation of human TLR8 by monitoring the activation of NF-κB. […] Therefore the reporter expression was regulated by the NF-κB promoter upon stimulation of human TLR8 for 20 hrs.
Then the HEK-Blue-hTLR8 cells were incubated with addition of 20 μL test compound in a serial dilution in the presence of final DMSO at 1% and perform incubation under 37° C. in a CO2 incubator for 20 hrs. […] The signalling pathway that TLR8 activation leads to downstream NF-κB activation has been widely accepted, and therefore similar reporter assay was also widely used for evaluating TLR8 agonist (Tsuneyasu Kaisho and Takashi Tanaka, Trends in Immunology, Volume 29, Issue 7, July 2008, […]; Hiroaki Hemmi et al, Nature Immunology 3, 196-200 (2002)).

[1] = Single dose PK after 1 mg/kg intravenous dosing to rat; assay type: in vivo, Male Wister-Han Rats; conditions: IV 1 mpk
Experimental: The single dose PK in Male Wister-Han Rats was performed to assess pharmacokinetic properties of tested compounds. Two groups of animals were dosed via bolus intravenous (IV) of the respective compound. Blood samples (approximately 20 μL) were collected via Jugular vein or an alternate site at 5 min, 15 min, 30 min, 1 hr, 2 hr, 4 hr, 7 hr and 24 hr post-dose for IV group. Blood samples were placed into tubes containing EDTA-K2 anticoagulant and centrifuged at 5000 rpm for 6 min at 4° C. to separate plasma from the samples. Following centrifugation, the resulting plasma was transferred to clean tubes for bioanalysis on LC/MS/MS. The pharmacokinetic parameters were calculated using non-compartmental module of WinNonlin® Professional 6.2. […] Therefore, compounds of present invention potentially could lead to less dose frequency and lower dose in clinical application.

[2] = rat, IV 1 mpk; data from WO2016023511; cited from earlier work
[3] = test system: patients with chronic hepatitis B; conditions: phase Ib; cited from earlier work
[4] = read-out: HEK-Blue-hTLR7 (EC50 (μM))
[5] = male, Wister-Han, plasma, iv, 1 mg/kg

Sequence of hERG channel (Q12809 whole entry): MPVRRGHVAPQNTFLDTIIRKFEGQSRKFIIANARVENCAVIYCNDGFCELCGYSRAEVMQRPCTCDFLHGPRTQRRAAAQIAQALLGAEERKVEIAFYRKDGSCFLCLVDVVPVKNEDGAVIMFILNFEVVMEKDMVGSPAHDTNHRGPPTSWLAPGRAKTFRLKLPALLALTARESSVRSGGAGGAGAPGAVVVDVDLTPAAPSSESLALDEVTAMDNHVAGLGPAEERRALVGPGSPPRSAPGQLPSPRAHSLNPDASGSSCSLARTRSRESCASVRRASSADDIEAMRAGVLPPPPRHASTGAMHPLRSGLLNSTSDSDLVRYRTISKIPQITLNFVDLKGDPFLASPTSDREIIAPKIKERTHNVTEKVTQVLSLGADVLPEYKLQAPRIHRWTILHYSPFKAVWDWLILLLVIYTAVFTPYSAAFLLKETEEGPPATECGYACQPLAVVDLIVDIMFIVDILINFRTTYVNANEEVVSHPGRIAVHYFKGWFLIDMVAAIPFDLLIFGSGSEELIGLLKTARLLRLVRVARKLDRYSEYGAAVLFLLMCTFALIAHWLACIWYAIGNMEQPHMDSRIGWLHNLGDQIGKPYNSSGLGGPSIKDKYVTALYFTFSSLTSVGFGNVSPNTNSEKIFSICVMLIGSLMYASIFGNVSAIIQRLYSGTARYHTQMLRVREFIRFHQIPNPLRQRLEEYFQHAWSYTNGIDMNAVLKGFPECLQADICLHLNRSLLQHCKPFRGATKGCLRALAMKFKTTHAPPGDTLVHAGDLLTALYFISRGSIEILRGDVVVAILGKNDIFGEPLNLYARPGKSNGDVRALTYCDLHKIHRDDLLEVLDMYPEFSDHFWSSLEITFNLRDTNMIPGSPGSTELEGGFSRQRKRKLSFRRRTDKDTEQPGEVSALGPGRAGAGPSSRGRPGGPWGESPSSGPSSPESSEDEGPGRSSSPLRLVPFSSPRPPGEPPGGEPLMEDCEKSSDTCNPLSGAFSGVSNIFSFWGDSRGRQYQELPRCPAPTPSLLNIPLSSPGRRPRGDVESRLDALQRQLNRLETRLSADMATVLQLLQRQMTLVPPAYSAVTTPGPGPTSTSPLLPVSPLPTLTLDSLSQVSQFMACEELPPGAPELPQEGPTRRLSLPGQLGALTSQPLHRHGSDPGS
Sequence of human TLR7 (Q9NYK1 27-1049): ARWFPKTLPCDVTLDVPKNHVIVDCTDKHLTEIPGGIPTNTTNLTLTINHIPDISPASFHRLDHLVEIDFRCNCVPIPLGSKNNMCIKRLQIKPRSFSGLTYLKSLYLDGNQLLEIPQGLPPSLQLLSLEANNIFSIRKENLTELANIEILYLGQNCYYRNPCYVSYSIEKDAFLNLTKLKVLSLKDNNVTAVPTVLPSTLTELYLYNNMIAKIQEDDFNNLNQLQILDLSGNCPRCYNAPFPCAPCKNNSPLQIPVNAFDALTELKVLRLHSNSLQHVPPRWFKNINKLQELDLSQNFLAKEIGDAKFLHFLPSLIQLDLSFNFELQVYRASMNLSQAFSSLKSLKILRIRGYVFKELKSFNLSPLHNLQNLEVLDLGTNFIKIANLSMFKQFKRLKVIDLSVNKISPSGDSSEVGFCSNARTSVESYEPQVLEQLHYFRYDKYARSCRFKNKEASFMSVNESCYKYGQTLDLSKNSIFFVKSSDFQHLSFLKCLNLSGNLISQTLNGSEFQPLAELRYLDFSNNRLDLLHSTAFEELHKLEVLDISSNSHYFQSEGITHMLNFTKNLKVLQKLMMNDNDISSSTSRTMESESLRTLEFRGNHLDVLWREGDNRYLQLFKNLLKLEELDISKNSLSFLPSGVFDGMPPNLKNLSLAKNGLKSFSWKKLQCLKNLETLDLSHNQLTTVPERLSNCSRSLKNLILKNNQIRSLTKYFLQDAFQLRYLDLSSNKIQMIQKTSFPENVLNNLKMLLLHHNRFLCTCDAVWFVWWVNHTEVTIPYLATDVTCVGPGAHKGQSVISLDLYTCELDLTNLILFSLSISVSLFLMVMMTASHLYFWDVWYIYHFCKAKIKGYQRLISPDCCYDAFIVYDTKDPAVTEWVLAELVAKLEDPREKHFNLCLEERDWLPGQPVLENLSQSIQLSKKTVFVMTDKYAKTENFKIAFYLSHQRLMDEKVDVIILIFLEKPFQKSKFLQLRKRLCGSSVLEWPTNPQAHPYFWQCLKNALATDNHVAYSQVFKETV
Sequence of human TLR8 (Q9NR97 27-1041): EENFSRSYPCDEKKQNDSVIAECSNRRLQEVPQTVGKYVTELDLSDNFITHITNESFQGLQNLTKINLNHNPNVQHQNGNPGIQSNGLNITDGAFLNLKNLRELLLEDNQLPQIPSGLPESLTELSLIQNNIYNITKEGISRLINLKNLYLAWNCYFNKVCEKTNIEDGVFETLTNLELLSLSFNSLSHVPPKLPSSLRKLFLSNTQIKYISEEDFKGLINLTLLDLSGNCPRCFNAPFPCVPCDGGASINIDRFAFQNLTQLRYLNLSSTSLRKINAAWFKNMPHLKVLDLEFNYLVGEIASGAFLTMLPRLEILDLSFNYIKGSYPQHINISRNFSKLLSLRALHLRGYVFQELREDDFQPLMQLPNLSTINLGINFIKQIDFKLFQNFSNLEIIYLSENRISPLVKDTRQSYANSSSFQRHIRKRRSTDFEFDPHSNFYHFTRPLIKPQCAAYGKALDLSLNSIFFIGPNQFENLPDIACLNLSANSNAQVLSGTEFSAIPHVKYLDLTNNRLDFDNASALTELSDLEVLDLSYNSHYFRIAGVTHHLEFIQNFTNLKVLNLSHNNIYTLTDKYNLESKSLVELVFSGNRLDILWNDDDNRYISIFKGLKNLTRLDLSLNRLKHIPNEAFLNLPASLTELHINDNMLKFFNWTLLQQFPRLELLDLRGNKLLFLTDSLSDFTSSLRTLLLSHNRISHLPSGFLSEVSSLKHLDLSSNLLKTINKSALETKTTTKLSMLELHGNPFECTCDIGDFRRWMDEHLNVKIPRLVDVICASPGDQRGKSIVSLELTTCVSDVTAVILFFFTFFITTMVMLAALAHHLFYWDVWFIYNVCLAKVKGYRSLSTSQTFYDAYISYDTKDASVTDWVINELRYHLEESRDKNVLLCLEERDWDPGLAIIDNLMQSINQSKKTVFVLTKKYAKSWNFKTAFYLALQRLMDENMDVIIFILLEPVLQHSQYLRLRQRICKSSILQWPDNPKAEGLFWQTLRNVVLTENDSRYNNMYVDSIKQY

EC50 (human TLR7; [4]): 0.18 µM
Compound: CS(=N)(=O)c1nc(N)c2[nH]c(=O)n(Cc3ccccc3)c2n1 (single isomer, unassigned) [Example 1-B, 6-Amino-9-benzyl-2-(methylsulfonimidoyl)-7H-purin-8-one]
IC50 (hERG channel): > 20 µM
IC20 (hERG channel): > 10 µM

Compound: CCCS(=N)(=O)c1nc(N)c2[nH]c(=O)n(Cc3ccccc3)c2n1 (single isomer, unassigned) [Example 4-A, 6-Amino-9-benzyl-2-(propylsulfonimidoyl)-7H-purin-8-one]
Relative induction of Positive control (10 μM Rifampicin) (%) (CYP3A4): −0.63%

Compound: CCCS(=N)(=O)c1nc(N)c2[nH]c(=O)n(Cc3ccccc3)c2n1 (single isomer, unassigned) [Example 4-B, 6-Amino-9-benzyl-2-(propylsulfonimidoyl)-7H-purin-8-one]
EC50 (human TLR7; HEK-Blue-hTLR7 (EC50 (μM))): 0.086 µM
Relative induction of Positive control (10 μM Rifampicin) (%) (CYP3A4): −0.90%

Compound: CCCS(=N)(=O)c1nc(N)c2[nH]c(=O)n(Cc3ccc(C)cc3)c2n1 (single isomer, unassigned) [Example 29-A, 6-Amino-2-(propylsulfonimidoyl)-9-(p-tolylmethyl)-7H-purin-8-one]
EC50 (human TLR7; HEK-Blue-hTLR7 (EC50 (μM))): 0.019 µM
IC50 (hERG channel): > 20 µM
IC20 (hERG channel): > 10 µM

Compound: CCCS(=N)(=O)c1nc(N)c2[nH]c(=O)n(Cc3ccc(C)cc3)c2n1 (single isomer, unassigned) [Example 29-B, 6-Amino-2-(propylsulfonimidoyl)-9-(p-tolylmethyl)-7H-purin-8-one]
EC50 (human TLR7; HEK-Blue-hTLR7 (EC50 (μM))): 0.022 µM
IC50 (hERG channel): > 20 µM

Compound: CCS(=N)(=O)c1nc(N)c2[nH]c(=O)n(Cc3ccc(Cl)cc3)c2n1 (single isomer, unassigned) [Example 70-A, 6-Amino-9-[(4-chlorophenyl)methyl]-2-(ethylsulfonimidoyl)-7H-purin-8-one]
EC50 (human TLR7; [4]): 0.054 µM
EC50 (human TLR8): > 1000 µM
Relative induction of Positive control (10 μM Rifampicin) (%) (CYP3A4): 0.42%
AUC(0-inf) [1, 5]: 1.63 µM·h
C0 [1, 5]: 3050 nM
clearance [1, 5]: 56 mL/min/kg

Compound: CCS(=N)(=O)c1nc(N)c2[nH]c(=O)n(Cc3ccc(Cl)cc3)c2n1 (single isomer, unassigned) [Example 70-B, 6-Amino-9-[(4-chlorophenyl)methyl]-2-(ethylsulfonimidoyl)-7H-purin-8-one]
EC50 (human TLR7; [4]): 0.077 µM
Relative induction of Positive control (10 μM Rifampicin) (%) (CYP3A4): −0.42%
C0 [1]: 2780 nM

EC50 (human TLR7; [4]): 0.134 µM
Relative induction of Positive control (10 μM Rifampicin) (%) (CYP3A4): −0.10%
AUC(0-inf) [1, 5]: 1.18 µM·h
C0 [1, 5]: 1850 nM
clearance [1, 5]: 84.6 mL/min/kg
Compound: CCS(=N)(=O)c1nc(N)c2[nH]c(=O)n(Cc3ccc(C)cc3)c2n1 (single isomer, unassigned) [Example 71-A, 6-Amino-2-(ethylsulfonimidoyl)-9-(p-tolylmethyl)-7H-purin-8-one]
IC50 (hERG channel): > 20 µM
IC20 (hERG channel): > 10 µM

EC50 (human TLR7; [4]): 0.087 µM
Compound: CCS(=N)(=O)c1nc(N)c2[nH]c(=O)n(Cc3ccc(C)cc3)c2n1 (single isomer, unassigned) [Example 71-B, 6-Amino-2-(ethylsulfonimidoyl)-9-(p-tolylmethyl)-7H-purin-8-one]

Relative induction of Positive control (10 μM Rifampicin) (%) (CYP3A4): −0.72%
Compound: CCCS(=N)(=O)c1nc(N)c2[nH]c(=O)n(Cc3ccc(F)cc3)c2n1 (stereo not drawn) [Example 24, 6-Amino-9-[(4-fluorophenyl)methyl]-2-(propylsulfonimidoyl)-7H-purin-8-one]

C0 [1]: 534 nM
Compound: CS(=O)(=O)c1nc(N)c2[nH]c(=O)n(Cc3ccccc3)c2n1 [Example S-1, reference compound]

Compound: CCCCOc1nc(N)c2c(n1)N(Cc1cccc(CN3CCCC3)c1)CC(=O)N2 [GS-9620]
C0 [2]: 220 nM
ISG15 mRNA induction [3]: dose-dependent ISG15 mRNA induction
Safety and tolerability [3]: safe, well tolerated
